In patent US4820821A, “Novel pyridazinone-imines and their physiologically tolerated addition salts with acids, their preparation and therapeutic agents containing these compounds” (BASF Aktiengesellschaft, priority 1981, dated 1989):
Where a name gives a salt, the structure may show the parent alone. Read-outs that look alike come from different tables or passages of the source.

What was measured:
[1] = test system: reserpine-induced hypothermia; experiment: Antidepressive action: reserpine antagonism, inhibition of reserpine-induced hypothermia of the mouse; assay type: in vivo, male Swiss mice; details: for ED50: Mus musculus, dose based on the base, read-out: ED 50% (dose which inhibits the reserpine-induced hypothermia of the mouse by 50%); for R.A. (relative activity), reserpine antagonism: amezinium = 1.00, oral
Description: Antidepressants effect dose-dependent inhibition of this hypotherma. The test substances are administered orally 60 minutes before the administration of reserpine.
The dose which effects 50% inhibition of the reserpine-induced hypothermia is determined, as the ED 50%, from the linear regression between log dose (mg/kg) and relative reduction in hypothermia (Δ%).

blood pressure = experiment: Effect on the blood pressure: hypertensive action, pithed rat; assay type: in vivo, male Sprague-Dawley rats; details: for ED20: Rattus norvegicus, dose based on the base, read-out: ED 20% hypertensive action (dose which increases the blood pressure of the pithed rat by 20%); for R.A. (relative activity), hypertensive action: amezinium = 1.00
Description: The measurement of the blood pressure in the carotid artery was carried out by means of Statham transducers. The substance was administered in the jugular vein (as an aqueous solution, 1 ml/kg) or intraperitoneally (as a tragacanth suspension, 2 ml/kg). The ED 20% is determined as the dose which increases the blood pressure by 20%.

[2] = test system: reserpine-induced hypothermia / blood pressure; experiment: Quotient ED 50% antidepressive action / ED 20% hypertensive action; assay type: in vivo, mouse / rat; details: for Q Increase: Table 2, route of hypertensive test not given;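 as to Q Increase: larger quotient means more selective hypertensive action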
Text: This is evident from the fact that the quotient defined above differs wtih respect to the comparative compounds. […] This arises, inter alia, from the fact that the hypertensive ED 20 constitutes the denominator of the quotient. It is possible that the unforeseeable selective direction of action is attributable to the special substitution,in accordance with the invention, at the 4-imino group.

[3] = Table 1, oral administration 60 min before reserpine
[4] = iv, Table 1, i.v. administration
[5] = ip, Table 1, i.p. administration

Compound | ED50 [1, 3] | R.A. (relative activity), reserpine antagonism ([1]; Table 1) | ED20 (blood pressure; [4]) | R.A. (relative activity), hypertensive action (blood pressure; Table 1, i.v. administration) | Q (quotient ED 50% antidepressive action/ED 20% hypertensive action) ([2]; hypertensive test i.v.) | ED20 (blood pressure; [5]) | R.A. (relative activity), hypertensive action (blood pressure; Table 1, i.p. administration) | Q (quotient ED 50% antidepressive action/ED 20% hypertensive action) ([2]; hypertensive test i.p.) | further results
O=C(N=c1ccn(-c2ccccc2)nc1)Oc1ccccc1 [Example 30, 1,4-dihydro-4-(phenoxycarbonyl)-imino-1-phenylpyridazine hydrochloride] | – | – | – | – | – | – | – | – | ED50 ([1]; Table 2, oral administration): 4.1 mg/kg; R.A. (relative activity), reserpine antagonism ([1]; Table 2): 0.18; ED20 (blood pressure; Table 2, route not given): 0.034 mg/kg; R.A. (relative activity), hypertensive action (blood pressure; Table 2): 1.47; Q Increase [2]: 120.59; factor by which the hypertensive dose (ED 20%) is smaller than the antidepressive effective dose (ED 50%) ([2]; compounds of Table 2): 120
CNC(=O)N=c1ccn(-c2ccccc2)nc1 [Example 31, 1,4-dihydro-4-(methylcarbamyl)-imino-1-phenylpyridazine] | 0.28 mg/kg | 2.62 | 1.47 mg/kg | 0.03 | 0.19 | – | – | – | factor by which the quotient of antidepressive action and hypertensive action is smaller than in the case of amezinium ([2]; compounds of Table 1): 77
O=C(N=c1ccn(-c2ccccc2)nc1)OCc1ccccc1 [Example 34] | 0.71 mg/kg | 1.03 | 0.1 mg/kg | 0.50 | 7.10 | – | – | – | –
C=CCOC(=O)N=c1ccn(-c2ccccc2)nc1 [Example 35] | 0.25 mg/kg | 2.93 | 0.1 mg/kg | 0.50 | 2.50 | – | – | – | –
CCSC(=O)N=c1ccn(-c2ccccc2)nc1 [Example 36] | 2 mg/kg | 0.37 | 0.316 mg/kg | 0.16 | 6.33 | – | – | – | –
CC(C)NC(=O)N=c1ccn(-c2ccccc2)nc1 [Example 37] | 0.7 mg/kg | 1.05 | 1 mg/kg | 0.05 | 0.70 | – | – | – | –
COc1cc(=NC(C)=O)cnn1-c1ccccc1 [Example 48, 4-acetylimino-1,4-dihydro-6-methoxy-1-phenylpyridazine perchlorate] | 1.1 mg/kg | 0.67 | – | – | – | 6.81 mg/kg | 0.05 | 0.16 | –
CCOc1cc(=NC(C)=O)cnn1-c1ccccc1 [Example 49] | 1.71 mg/kg | 0.43 | – | – | – | 4.64 mg/kg | 0.08 | 0.37 | –
CCC(=O)N=c1cnn(-c2ccccc2)c(OC)c1 [Example 50] | 0.18 mg/kg | 4.07 | – | – | – | 3.16 mg/kg | 0.12 | 0.06 | –
CCCC(=O)N=c1cnn(-c2ccccc2)c(OC)c1 [Example 52] | 1.4 mg/kg | 0.52 | – | – | – | 3.16 mg/kg | 0.12 | 0.44 | –
COc1cc(=NC(=O)Oc2ccccc2)cnn1-c1ccccc1 [Example 58, 1,4-dihydro-6-methoxy-4-(phenoxycarbonyl)-imino-1-phenylpyridazine] | – | – | – | – | – | – | – | – | ED50 ([1]; Table 2, oral administration): 5.62 mg/kg; R.A. (relative activity), reserpine antagonism ([1]; Table 2): 0.13; ED20 (blood pressure; Table 2, route not given): 0.1 mg/kg; R.A. (relative activity), hypertensive action (blood pressure; Table 2): 0.50; Q Increase [2]: 56.20
COc1cc(=NC(=O)c2ccccc2)cnn1-c1ccccc1 [Example 60] | 0.93 mg/kg | 0.79 | – | – | – | 2.15 mg/kg | 0.17 | 0.43 | –
COc1cc(OC)cc(C(=O)N=c2cnn(-c3ccccc3)c(OC)c2)c1 [Example 62] | 0.66 mg/kg | 1.11 | 0.56 mg/kg | 0.09 | 1.18 | – | – | – | –
